This note sets out measurements from patent US11312687B2, “7H-azulene [1,2,3-i,j] isoquinolin-7-one compound, single crystal and use thereof” (Hunan University of Chinese Medicine, priority 2017, dated 2022).

Where two headings read alike, the source gives them in different places. Bounds are passed on as bounds.

The experiment concerns PC12 cells damaged by Aβ25-35. As to the kind of experiment: Protective effect on PC12 cells damaged by Aβ25-35 (MTT cell viability). Format: cell-based, rat. From the text: Protective effect of 6-hydroxy-5,8-dimethoxy-7H-azulene [1,2,3-i,j] isoquinolin-7-one on PC12 cells damaged by Aβ25-35: cell seeding in the 96-well plate was the same as above, and the experiment was divided into 5 groups, 4 holes in each group.

For the compound `COc1cc2ccnc3c2c(c1O)-c1c-3cccc(OC)c1=O` [6-hydroxy-5,8-dimethoxy-7H-azulene [1,2,3-i,j] isoquinolin-7-one], where the note is “Rattus norvegicus, PC-12, 0.5 ug·mL^-1 sample, 30 μmol/L Aβ25-35, 24 h, MTT, x ± s, n = 4”, the viability at 0.5 µg/mL amounted to 85.8 ± 1.6%. Besides, the viability at 1 µg/mL is, setting by setting: (Rattus norvegicus, PC-12, 1.0 ug·mL^-1 sample, 30 μmol/L Aβ25-35, 24 h, MTT, x ± s, n = 4, read-out: cell viability (%)) 103 ± 1.8%; (Rattus norvegicus, PC-12, concentration of 1.0 μg·mL^-1, 30 μmol/L Aβ25-35, read-out: viability of PC12 damaged cells) above 95%. Moreover, the viability at 5 µg/mL (Rattus norvegicus, PC-12, 5.0 ug·mL^-1 sample, 30 μmol/L Aβ25-35, 24 h, MTT, x ± s, n = 4) stood at 77.4 ± 3.8%. Further, the “cell viability compared to model group” value (three different concentrations (0.5, 1.0, 5.0 μg·mL^-1), P<0.01 vs model group) is “significantly increased cell viability”.
